Patent EP0072761B1, “Decarboxylase-inhibiting fluorinated alkane diamine derivatives” (MERRELL TORAUDE ET COMPAGNIE, priority 1981, dated 1983)

Biological target: T1, Ornithine decarboxylase (ODC) (Rattus norvegicus, UniProt P09057)
T1 construct: is prepared from the livers of rats which have been injected with thioacetamide; from tissue; host or cells: rat liver (thioacetamide-induced)
T1 sequence (P09057 1-461): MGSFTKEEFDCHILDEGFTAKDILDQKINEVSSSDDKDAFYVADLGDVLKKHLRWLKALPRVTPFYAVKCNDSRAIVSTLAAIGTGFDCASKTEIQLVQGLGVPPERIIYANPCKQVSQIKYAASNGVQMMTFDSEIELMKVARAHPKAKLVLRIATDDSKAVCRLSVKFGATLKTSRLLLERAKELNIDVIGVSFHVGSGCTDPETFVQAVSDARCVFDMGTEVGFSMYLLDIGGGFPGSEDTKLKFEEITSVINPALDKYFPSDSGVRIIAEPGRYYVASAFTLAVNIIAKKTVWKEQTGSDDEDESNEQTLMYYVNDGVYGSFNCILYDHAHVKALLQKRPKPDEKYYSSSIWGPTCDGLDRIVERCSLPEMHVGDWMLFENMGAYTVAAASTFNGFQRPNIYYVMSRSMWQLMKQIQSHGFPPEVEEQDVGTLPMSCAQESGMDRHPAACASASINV
Test: In vitro time-dependent inhibition of ornithine decarboxylase (14CO2 release from DL-[1-14C]ornithine; Kitz and Wilson analysis)
Format: biochemical, rats
Settings: calculated by method of Kitz and Wilson; for Ki: apparent dissociation constant, ODC from livers of thioacetamide-treated rats, incubated at 37°; for ODC τ50: half-life at infinite concentration of inhibitor, rat liver ODC, 37°
Protocol: The stock solution of ODC is composed of proteins (16 mg/mL), sodium phosphate buffer (30 mM, pH 7.1), dithiothreitol (5 mM) and pyridoxal phosphate (0.1 mM). The specific activity of this stock solution is 0.12 nmol of CO2/min per mg of protein. For a typical experiment 320 µl of this stock solution is mixed at time 0 with 80 µl of a solution of the inhibitor in water and incubated at 37°. At different times 50 pl aliquots are transferred into a 1 mL assay medium containing sodium phosphate (30 mM, pH 7.1), dithiothreitol (5 mM), pyridoxal phosphate (0.1 mM), L-ornithine (0.081 pmol), and DL-[1-^14C] ornithine (0.043 pmol, 58 Ci/mol, Amersham) in a closed vessel in which a filter paper moistered with 50 µl hyamine hydroxide (1 M) is fitted. The reaction is allowed to proceed for 60 min at 37°C and then terminated by addition of 0.5 ml of 40% trichloroacetic acid. After an additional 30 min, the CO2 absorbed on the filter paper is counted in a standard scintillation cocktail.

| Compound | Ki [µM] | ODC τ50 [min] |
| --- | --- | --- |
| NCC(=O)CC(N)(CF)C(=O)O (stereo not shown) [A, 2-fluoromethyl-2,5-diamino-4-oxo-pentanoic acid] | 4.8 | 3.1 |
| C=C(CN)CC(N)CF (stereo not shown) [B, 1-fluoro-2,5-diamino-4-methylene-pentane] | – | 2.6 |
| NCC(=O)CC(N)CF (stereo not shown) [C, 1-fluoro-2,5-diamino-4-oxo-pentane] | – | 1.6 |
| C=C(CN)CC(N)(CF)C(=O)O (stereo not shown) [D, 2-fluoromethyl-2,5-diamino-4-methylene-pentanoic acid] | 53 | 3.6 |
| C=C(CN)CC(N)C(F)F (stereo not shown) [E, 1,1-difluoro-2,5-diamino-4-methylene-pentane] | – | 2.2 |
